The values below come from PubChem BioAssay (NCI).

The structures appear in SMILES notation. “And” between values parts separate entries of the source, which are not always exact repeats. Identical values can stand only once.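 Protocol summary: plate cells (96-well), add compound at 5 concentrations, incubate 48 h, interpolate endpoints linearly. Abbreviation: GI50, concentration required for 50% inhibition of growth. The concentration for full growth arrest is given as TGI.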 Where a SMILES comes first, the peptide text is derived from it. [ ]: non-standard residue; d: D form. The star is where a group is joined. NMeF = CN[C@@H](Cc1ccccc1)C(=O)O; NMeV = CN[C@H](C(=O)O)C(C)C; Boc = CC(C)(C)OC(=O)*; OBn = c1ccc(CO*)cc1

Among the test systems are HL-60(TB) leukemia; K-562 leukemia; KM12 colon; MOLT-4 leukemia; NCI/ADR-RES ovarian; PC-3 prostate; RXF 393 renal; SK-MEL-5 melanoma; T-47D breast; UACC-257 melanoma.
Common to all, as to assay: growth of human tumour cells (NCI), 48 h

On to `Cc1c(-c2nnc(-c3ccc(F)cc3)o2)nnn1-c1ccnc2c(C(F)(F)F)cccc12`, for which the GI50 was more than 100000 nM in the assay with HL-60(TB) leukemia; 19.8 µM in the assay with K-562 leukemia; 89.5 µM in the assay with KM12 colon; more than 100 µM with MOLT-4 leukemia; 40.3 µM with NCI/ADR-RES ovarian; 23.1 µM in the assay with PC-3 prostate. The GI50 with RXF 393 renal was 21600 nM; in the assay on SK-MEL-5 melanoma, 30.4 µM; with T-47D breast it was 20 µM; in the assay on UACC-257 melanoma, more than 100 µM. For the same molecule, the TGI in the assay with HL-60(TB) leukemia, in the assay on K-562 leukemia, in the assay with KM12 colon, in the assay on MOLT-4 leukemia, in the assay on NCI/ADR-RES ovarian and in the assay on PC-3 prostate was more than 100 µM each time. In addition, the TGI with RXF 393 renal is 70.7 µM; in the assay with SK-MEL-5 melanoma, more than 100 µM; with T-47D breast, more than 100 µM; with UACC-257 melanoma, more than 100 µM.

On to `COc1nc(N)nc2c1ncn2[C@@H]1O[C@H](CO)[C@@H](O)[C@@H]1O`, for which the GI50 in the assay on HL-60(TB) leukemia was more than 100000 nM; with K-562 leukemia, more than 100 µM; in the assay on KM12 colon, more than 100 µM; in the assay with MOLT-4 leukemia, 9.51 µM; with NCI/ADR-RES ovarian it was more than 100 µM; in the assay on PC-3 prostate, more than 100 µM. Further, the GI50 with RXF 393 renal is more than 100000 nM; in the assay on SK-MEL-5 melanoma, more than 100 µM; in the assay with T-47D breast, more than 100 µM; in the assay on UACC-257 melanoma, more than 100 µM. For the same molecule, the TGI in the assay with HL-60(TB) leukemia, in the assay on K-562 leukemia, with KM12 colon, in the assay on MOLT-4 leukemia, in the assay on NCI/ADR-RES ovarian and with PC-3 prostate was more than 100 µM throughout. Moreover, the TGI in the assay with RXF 393 renal, in the assay on SK-MEL-5 melanoma, in the assay with T-47D breast and in the assay with UACC-257 melanoma was more than 100 µM throughout.

On to `CCOC(=O)c1c(Cl)c2c(n1Cc1cccc(OC)c1)-c1oncc1CC2`, for which the GI50 in the assay with HL-60(TB) leukemia is 557 nM; with K-562 leukemia it was 0.397 µM; in the assay with KM12 colon it was 0.732 µM; with MOLT-4 leukemia it was 3.48 µM; in the assay on NCI/ADR-RES ovarian, 0.497 µM; in the assay on PC-3 prostate, 5.4 µM. For the same molecule, the GI50 was 2870 nM in the assay with RXF 393 renal, 1.24 µM in the assay on SK-MEL-5 melanoma, 4.41 µM with T-47D breast and 6.41 µM in the assay with UACC-257 melanoma. Also, the TGI with HL-60(TB) leukemia was 5.81 µM; in the assay with K-562 leukemia, more than 100 µM; in the assay on KM12 colon it was 77.9 µM; in the assay with MOLT-4 leukemia it was more than 100 µM; in the assay with NCI/ADR-RES ovarian it was 6.91 µM; in the assay with PC-3 prostate, more than 100 µM. The TGI was 40.4 µM in the assay with RXF 393 renal, 10.5 µM in the assay on SK-MEL-5 melanoma, more than 100 µM in the assay on T-47D breast and more than 100 µM with UACC-257 melanoma.

In the case of `CC(C)[C@@H](C(=O)N1CCC[C@H]1C(=O)OCc1ccccc1)N(C)C(=O)[C@H](C(C)C)N(C)C(=O)[C@H](Cc1ccccc1)N(C)C(=O)[C@H](NC(=O)OC(C)(C)C)C(C)C` (Boc-[dV][NMeF][NMeV][NMeV]P-OBn), the GI50 was 21900 nM in the assay with HL-60(TB) leukemia; more than 100 µM with K-562 leukemia; more than 100 µM in the assay with KM12 colon; 3.68 µM with MOLT-4 leukemia; 22400 nM in the assay with RXF 393 renal; 16.5 µM in the assay with UACC-257 melanoma. The TGI is more than 100 µM in the assay with HL-60(TB) leukemia; more than 100 µM in the assay with K-562 leukemia; more than 100 µM in the assay on KM12 colon; more than 100 µM in the assay on MOLT-4 leukemia; more than 50 µM with NCI/ADR-RES ovarian; more than 50 µM in the assay on PC-3 prostate. Moreover, the TGI in the assay on RXF 393 renal is > 50 µM and 65.3 µM; with SK-MEL-5 melanoma it was more than 100 µM; in the assay on T-47D breast, more than 50 µM; with UACC-257 melanoma, more than 100 µM.

Consider `CCN(CC)CCCCNc1ncc2cc(-c3cc(OC)cc(OC)c3)c(NC(=O)NC(C)(C)C)nc2n1`, for which the GI50 is 1990 nM in the assay with HL-60(TB) leukemia; 2.95 µM in the assay on K-562 leukemia; 9.65 µM in the assay with KM12 colon; 3.66 µM with MOLT-4 leukemia; 8.01 µM with NCI/ADR-RES ovarian; 7.3 µM in the assay with PC-3 prostate. Also, the GI50 with RXF 393 renal was 1630 nM; in the assay with SK-MEL-5 melanoma it was 6.19 µM; in the assay with T-47D breast it was 10.8 µM; with UACC-257 melanoma, 1.78 µM. For the same molecule, the TGI in the assay on HL-60(TB) leukemia turned out to be 4.8 µM; in the assay with K-562 leukemia, 9.37 µM; in the assay with KM12 colon, 23 µM; in the assay on MOLT-4 leukemia, 19.4 µM; in the assay with NCI/ADR-RES ovarian it was 27.3 µM; with PC-3 prostate, 26 µM. The TGI with RXF 393 renal worked out at 11.4 µM; in the assay on SK-MEL-5 melanoma, 18 µM; in the assay on T-47D breast it was 29.3 µM; in the assay with UACC-257 melanoma, 3.68 µM.

With `Cc1[nH]nc2ccc3nc(-c4ccc5[nH]ncc5c4)c4c(c3c12)CCCC4`, the GI50 with HL-60(TB) leukemia is 1730 nM; in the assay on K-562 leukemia, 1.7 µM; in the assay on KM12 colon it was 0.63 µM; in the assay with MOLT-4 leukemia, 1.92 µM; in the assay with NCI/ADR-RES ovarian it was 2.4 µM; in the assay with PC-3 prostate it was 2.86 µM. For the same molecule, the GI50 in the assay with RXF 393 renal was 230 nM; in the assay with SK-MEL-5 melanoma it was 1.92 µM; in the assay on T-47D breast it was 1.14 µM; with UACC-257 melanoma it was 1.68 µM. The TGI was 4.32 µM in the assay with HL-60(TB) leukemia; more than 100 µM in the assay with K-562 leukemia; 13.6 µM in the assay with KM12 colon; 10.1 µM in the assay with MOLT-4 leukemia; 15.8 µM in the assay with NCI/ADR-RES ovarian; 23.6 µM with PC-3 prostate. Besides, the TGI in the assay on SK-MEL-5 melanoma worked out at 5 µM; with T-47D breast it was 8.22 µM; in the assay on UACC-257 melanoma it was 6.63 µM.

As to `COc1ccc2cc(Cn3cc[n+](Cc4ccc5ccccc5c4)c3)ccc2c1`, the GI50 with HL-60(TB) leukemia is 1340 nM; in the assay with K-562 leukemia it was 3.51 µM; with KM12 colon it was 1.72 µM; in the assay on MOLT-4 leukemia it was 2.31 µM; in the assay on NCI/ADR-RES ovarian it was more than 100 µM; with PC-3 prostate it was 2.13 µM. Besides, the GI50 with RXF 393 renal was 1750 nM; with SK-MEL-5 melanoma, 1.33 µM; in the assay with T-47D breast, 1.87 µM; in the assay on UACC-257 melanoma, 1.95 µM. Further, the TGI in the assay with HL-60(TB) leukemia is 3.89 µM; in the assay with K-562 leukemia it was 16.3 µM; with KM12 colon it was 3.43 µM; with MOLT-4 leukemia it was 7.62 µM; in the assay with NCI/ADR-RES ovarian it was more than 100 µM; with PC-3 prostate it was 9.17 µM. Besides, the TGI was 4.59 µM in the assay on RXF 393 renal, 2.62 µM with SK-MEL-5 melanoma, 7.56 µM in the assay with T-47D breast and 5.09 µM in the assay on UACC-257 melanoma.

With `CC(C(=O)O)/C(=C\c1ccc2c(c1)OCO2)C(=O)O` (stereo not given), the TGI with HL-60(TB) leukemia was 0.21 µM; in the assay with K-562 leukemia, more than 100 µM; in the assay on KM12 colon, more than 100 µM; with MOLT-4 leukemia, more than 21.9 µM; in the assay with NCI/ADR-RES ovarian it was more than 100 µM; with PC-3 prostate, more than 100 µM. For the same molecule, the TGI with RXF 393 renal, in the assay with SK-MEL-5 melanoma, with T-47D breast and with UACC-257 melanoma was more than 100 µM in each case.

In the case of `CC(C)NC(=O)OCc1c(COC(=O)NC(C)C)c(-c2ccc(Cl)c(Cl)c2)n2c1CCC2`, the TGI was 48.2 µM with HL-60(TB) leukemia; 77.1 µM with K-562 leukemia; 73.1 µM with KM12 colon; 34.8 µM in the assay on MOLT-4 leukemia; more than 100 µM with NCI/ADR-RES ovarian; more than 100 µM in the assay with PC-3 prostate. Besides, the TGI is 46.9 µM in the assay with RXF 393 renal, more than 81.7 µM with SK-MEL-5 melanoma, more than 56.2 µM in the assay with T-47D breast and 65.9 µM in the assay on UACC-257 melanoma.

Regarding `CSC1=Nc2c(c(C)c(C)n2COC(CO)CO)C2=NC(=O)CC(C)N12` (stereo not given), the GI50 with HL-60(TB) leukemia is 86.4 nM; in the assay with K-562 leukemia it was more than 100 µM; in the assay with KM12 colon, more than 100 µM; with MOLT-4 leukemia it was more than 100 µM; in the assay with NCI/ADR-RES ovarian, more than 100 µM; in the assay with PC-3 prostate, more than 100 µM. Besides, the GI50 in the assay on RXF 393 renal was more than 100000 nM; with SK-MEL-5 melanoma, more than 100 µM; in the assay on T-47D breast, more than 100 µM; in the assay with UACC-257 melanoma, more than 100 µM. Moreover, the TGI in the assay with HL-60(TB) leukemia, with K-562 leukemia, with KM12 colon, with MOLT-4 leukemia, in the assay with NCI/ADR-RES ovarian and in the assay with PC-3 prostate was more than 100 µM throughout. For the same molecule, the TGI in the assay on RXF 393 renal, in the assay on SK-MEL-5 melanoma, in the assay on T-47D breast and with UACC-257 melanoma was more than 100 µM each time.

Consider `Clc1ccc(C2=NN[C@H](c3cn(-c4ccccc4)nc3-c3ccccc3)C2)cc1`, for which the GI50 is 19800 nM in the assay on HL-60(TB) leukemia; 4.8 µM with K-562 leukemia; 11.1 µM with KM12 colon; 19.6 µM in the assay on MOLT-4 leukemia; 3.17 µM with NCI/ADR-RES ovarian; 3.68 µM in the assay on PC-3 prostate. In addition, the GI50 is 2480 nM in the assay with RXF 393 renal, 19 µM in the assay on SK-MEL-5 melanoma, 3.91 µM with T-47D breast and 4.91 µM in the assay with UACC-257 melanoma. For the same molecule, the TGI in the assay on HL-60(TB) leukemia was more than 100 µM; with K-562 leukemia, more than 100 µM; in the assay with KM12 colon, more than 100 µM; with MOLT-4 leukemia, more than 100 µM; in the assay on NCI/ADR-RES ovarian, 12.7 µM; with PC-3 prostate it was 14.6 µM. Moreover, the TGI in the assay with RXF 393 renal was 8.08 µM; in the assay with SK-MEL-5 melanoma it was more than 100 µM; in the assay on T-47D breast it was 18.8 µM; with UACC-257 melanoma, 37.5 µM.
